# Assay: Antagonist activity at human recombinant CCR5 expressed in human HeLa-P4 cells assessed as inhibition of human HeLa-P4 cells binding to HIV1 gp160 expressing CHO cells by cell-cell fusion assay
row,IC50 [nM],SMILES
1,56,"Cc1ccnc(C)c1C(=O)NCCN1CCCC(CC(c2ccccc2)c2ccccc2)C1 (racemic) [rac-N-(2-(3-(2,2-diphenylethyl)piperidin-1-yl)ethyl)-2,4-dimethylnicotinamide]"
2,102,"Cc1ccnc(C)c1C(=O)N1CC(N(C)C2CCN(C(c3ccccc3)c3ccccc3)CC2)C1 [(3-((1-benzhydrylpiperidin-4-yl)(methyl)amino)azetidin-1-yl)(2,4-dimethylpyridin-3-yl)methanone]"
3,41,"Cc1ccnc(C)c1C(=O)N1CCC(N2C3CCC2CN(C(c2ccccc2)c2ccccc2)C3)CC1 [(4-(3-benzhydryl-3,8-diazabicyclo[3.2.1]octan-8-yl)piperidin-1-yl)(2,4-dimethylpyridin-3-yl)methanone]"
4,313,"Cc1ccnc(C)c1C(=O)N1CCC(N2CC3CCC(C2)N3C(c2ccccc2)c2ccccc2)CC1 [(4-(8-benzhydryl-3,8-diazabicyclo[3.2.1]octan-3-yl)piperidin-1-yl)(2,4-dimethylpyridin-3-yl)methanone]"
5,24,"Cc1ccnc(C)c1C(=O)N1CCC(N(C)C2CN(C(c3ccccc3)c3ccccc3)C2)CC1 [(4-((1-benzhydrylazetidin-3-yl)(methyl)amino)piperidin-1-yl)(2,4-dimethylpyridin-3-yl)methanone]"
6,1,"Cc1cccc(C)c1C(=O)N1CCC(N2CC[C@@H](N(Cc3ccccc3)C(=O)C3CC3)C2)CC1 [(R)-N-benzyl-N-(1-(1-(2,6-dimethylbenzoyl)piperidin-4-yl)pyrrolidin-3-yl)cyclopropanecarboxamide]"
7,1230,"Cc1cccc(C)c1C(=O)N1CCC(N2CC[C@H](N(Cc3ccccc3)C(=O)C3CC3)C2)CC1 [(S)-N-benzyl-N-(1-(1-(2,6-dimethylbenzoyl)piperidin-4-yl)pyrrolidin-3-yl)cyclopropanecarboxamide]"
8,2490,"CC(=O)NC(c1ccccc1)C1CN(C2CCN(C(=O)c3c(C)cccc3C)CC2)C1 (stereo not drawn) [N-((1-(1-(2,6-dimethylbenzoyl)piperidin-4-yl)azetidin-3-yl)(phenyl)methyl)acetamide]"
9,145,"Cc1cccc(C)c1C(=O)N1CCC(N2CCC(CNC(=O)C3CC3)(Cc3ccccc3)CC2)CC1 [N-((4-benzyl-1'-(2,6-dimethylbenzoyl)-1,4'-bipiperidin-4-yl)methyl)cyclopropanecarboxamide]"
10,3,"Cc1cccc(C)c1C(=O)N1CCC(N2CCC(N(Cc3ccccc3)C(=O)C3CCC3)CC2)CC1 [N-benzyl-N-(1'-(2,6-dimethylbenzoyl)-1,4'-bipiperidin-4-yl)cyclobutanecarboxamide]"
11,0.5,"Cc1cccc(C)c1C(=O)N1CCC(C)(N2CCC(N(Cc3ccccc3)C(=O)C3CC3)CC2)CC1 [N-benzyl-N-(1'-(2,6-dimethylbenzoyl)-4'-methyl-1,4'-bipiperidin-4-yl)cyclopropanecarboxamide]"
12,5800,"Cc1cccc(C)c1C(=O)N1CCC(N2CC(N(Cc3ccccc3)C(=O)C3CC3)C2)CC1 [N-benzyl-N-(1-(1-(2,6-dimethylbenzoyl)piperidin-4-yl)azetidin-3-yl)cyclopropanecarboxamide]"
13,1,"Cc1cccc(C)c1C(=O)N1[C@@H]2CC[C@H]1C[C@H](N1CC[C@@H](N(Cc3ccccc3)C(=O)C3CC3)C1)C2 [exo-N-benzyl-N-((R)-1-(8-(2,6-dimethylbenzoyl)-8-azabicyclo[3.2.1]octan-3-yl)pyrrolidin-3-yl)cyclopropanecarboxamide]"

# Source: BindingDB's records for doi:10.1016/j.bmcl.2009.01.012 (Pfizer, 2009)
